Measured values reported in ChEMBL document CHEMBL1201862, “PubChem BioAssay data set” (2004).
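Protocol summary: plate cells (96-well), add compound at 5 concentrations, incubate 48 h, interpolate endpoints linearly. The concentration for 50% growth inhibition is given as GI50.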 The source made the active and inactive calls. Cut-off read from the data, not from the text of the source: active = GI50 up to about 1.1 µM and inactive = higher.

Legend:
Assay in all cases: growth of human tumour cells (NCI), 48 h
OVCAR-8 = system: OVCAR-8
MDA-MB-231 = system: MDA-MB-231
SK-MEL-28 = system: SK-MEL-28
NCI/ADR-RES = system: NCI/ADR-RES
K562 = system: K562
UO-31 = system: UO-31
COLO 205 = system: COLO 205
HCC 2998 = system: HCC 2998
KM12 = system: KM12
MDA-N = system: MDA-N
SNB-19 = system: SNB-19
MCF7 = system: MCF7
OVCAR-4 = system: OVCAR-4
NCI-H460 = system: NCI-H460
SK-OV-3 = system: SK-OV-3
SNB-75 = system: SNB-75
CCRF-CEM = system: CCRF-CEM
UACC-257 = system: UACC-257
A549 = system: A549
SK-MEL-2 = system: SK-MEL-2
NCI-H23 = system: NCI-H23
Hs-578T = system: Hs-578T
CAKI-1 = system: CAKI-1
SW-620 = system: SW-620
HT-29 = system: HT-29
HCT-15 = system: HCT-15
U-251 = system: U-251
T47D = system: T47D
UACC-62 = system: UACC-62
MDA-MB-435 = system: MDA-MB-435
NCI-H522 = system: NCI-H522
NCI-H226 = system: NCI-H226
M14 = system: M14
OVCAR-5 = system: OVCAR-5
HOP-92 = system: HOP-92
Malme-3M = system: Malme-3M
PC-3 = system: PC-3
EKVX = system: EKVX
RPMI-8226 = system: RPMI-8226
IGROV-1 = system: IGROV-1
ACHN = system: ACHN
786-0 = system: 786-0
SR = system: SR
TK-10 = system: TK-10
DU-145 = system: DU-145
SF-295 = system: SF-295
BT-549 = system: BT-549
A498 = system: A498
HCT-116 = system: HCT-116
OVCAR-3 = system: OVCAR-3
SK-MEL-5 = system: SK-MEL-5
SF-268 = system: SF-268
MOLT-4 = system: MOLT-4
LOX IMVI = system: LOX IMVI
SF-539 = system: SF-539
HOP-62 = system: HOP-62
SN12C = system: SN12C
HL-60 = system: HL-60
RXF 393 = system: RXF 393

COc1cc(/C=C/c2cc(/C=C/c3ccc(O)c(OC)c3)oc(=O)c2)ccc1O
GI50 (OVCAR-8): 4.12 µM (inactive) | GI50 (MDA-MB-231): 13.9 µM (inactive) | GI50 (SK-MEL-28): 6.32 µM (inactive) | GI50 (NCI/ADR-RES): 4.38 µM (inactive) | GI50 (K562): 4.43 µM (inactive) | GI50 (UO-31): 3.01 µM (inactive) | GI50 (COLO 205): 13.1 µM (inactive) | GI50 (HCC 2998): 1.81 µM (inactive) | GI50 (KM12): 3.18 µM (inactive) | GI50 (MDA-N): 4.7 µM (inactive) | GI50 (SNB-19): 7.57 µM (inactive) | GI50 (MCF7): 3.33 µM (inactive) | GI50 (OVCAR-4): 3.84 µM (inactive) | GI50 (NCI-H460): 2.29 µM (inactive) | GI50 (SK-OV-3): 9.04 µM (inactive) | GI50 (SNB-75): 393 nM (active) | GI50 (CCRF-CEM): 3.64 µM (inactive) | GI50 (UACC-257): 5.25 µM (inactive) | GI50 (A549): 3.17 µM (inactive) | GI50 (SK-MEL-2): 3.98 µM (inactive) | GI50 (NCI-H23): 4.06 µM (inactive) | GI50 (Hs-578T): 4.54 µM (inactive) | GI50 (CAKI-1): 3.61 µM (inactive) | GI50 (SW-620): 3.13 µM (inactive) | GI50 (HT-29): 2.84 µM (inactive) | GI50 (HCT-15): 3.12 µM | GI50 (U-251): 3.07 µM (inactive) | GI50 (T47D): 272 nM (active) | GI50 (UACC-62): 4.69 µM (inactive) | GI50 (MDA-MB-435): 3.38 µM (inactive) | GI50 (NCI-H522): 2.87 µM (inactive) | GI50 (NCI-H226): 10.5 µM (inactive) | GI50 (M14): 5.09 µM (inactive) | GI50 (OVCAR-5): 32.8 µM (inactive) | GI50 (HOP-92): 4.67 µM (inactive) | GI50 (Malme-3M): 2.66 µM (inactive) | GI50 (PC-3): 3.91 µM (inactive) | GI50 (EKVX): 3.1 µM (inactive) | GI50 (RPMI-8226): 2.3 µM (inactive) | GI50 (IGROV-1): 4.67 µM (inactive) | GI50 (ACHN): 3.26 µM (inactive) | GI50 (786-0): 5.62 µM (inactive) | GI50 (SR): 3.07 µM (inactive) | GI50 (TK-10): 3.78 µM (inactive) | GI50 (DU-145): 0.553 µM (active) | GI50 (SF-295): 2.74 µM (inactive) | GI50 (BT-549): 3.23 µM (inactive) | GI50 (A498): 3.9 µM (inactive) | GI50 (HCT-116): 3.67 µM (inactive) | GI50 (OVCAR-3): 2.36 µM (inactive) | GI50 (SK-MEL-5): 4.99 µM (inactive) | GI50 (SF-268): 3.94 µM (inactive) | GI50 (MOLT-4): 3.48 µM (inactive) | GI50 (LOX IMVI): 3.71 µM (inactive) | GI50 (SF-539): 6.79 µM (inactive) | GI50 (HOP-62): 4.92 µM (inactive) | GI50 (SN12C): 5.53 µM (inactive)

Oc1cccc2c1[nH]c1c(C3=C[C@@]4(O)CC/C=C\CCCCN5CC[C@@H]3[C@]3(CC6/C=C\CCCCN6[C@H]34)C5)nccc12 (some centres not stated)
GI50 (OVCAR-8): 1.15 µM (inactive) | GI50 (MDA-MB-231): 1.19 µM (inactive) | GI50 (SK-MEL-28): 1.66 µM (inactive) | GI50 (NCI/ADR-RES): 2.17 µM (inactive) | GI50 (K562): 0.607 µM (active) | GI50 (UO-31): 1.44 µM (inactive) | GI50 (COLO 205): 0.787 µM (active) | GI50 (HCC 2998): 0.384 µM (active) | GI50 (KM12): 1.55 µM (inactive) | GI50 (MDA-N): 0.771 µM (active) | GI50 (SNB-19): 2.69 µM (inactive) | GI50 (MCF7): 0.7 µM (active) | GI50 (OVCAR-4): 0.679 µM (active) | GI50 (NCI-H460): 0.65 µM (active) | GI50 (SK-OV-3): 1.94 µM (inactive) | GI50 (SNB-75): 946 nM (active) | GI50 (CCRF-CEM): 0.973 µM (active) | GI50 (UACC-257): 1.68 µM (inactive) | GI50 (A549): 2.04 µM (inactive) | GI50 (SK-MEL-2): 1.47 µM (inactive) | GI50 (NCI-H23): 0.912 µM (active) | GI50 (Hs-578T): 1.63 µM (inactive) | GI50 (CAKI-1): 1.67 µM (inactive) | GI50 (SW-620): 1.43 µM (inactive) | GI50 (HT-29): 0.796 µM (active) | GI50 (HCT-15): 0.718 µM | GI50 (U-251): 1.08 µM (active) | GI50 (T47D): 804 nM (active) | GI50 (UACC-62): 1.47 µM (inactive) | GI50 (MDA-MB-435): 0.798 µM (active) | GI50 (NCI-H522): 1.01 µM (active) | GI50 (NCI-H226): 2.21 µM (inactive) | GI50 (M14): 0.966 µM (active) | GI50 (OVCAR-5): 1.07 µM (active) | GI50 (HOP-92): 0.226 µM (active) | GI50 (Malme-3M): 1.6 µM (inactive) | GI50 (PC-3): 0.738 µM (active) | GI50 (EKVX): 1.23 µM (inactive) | GI50 (RPMI-8226): 0.61 µM (active) | GI50 (IGROV-1): 1.02 µM (active) | GI50 (ACHN): 1.1 µM (active) | GI50 (786-0): 0.659 µM (active) | GI50 (SR): 0.578 µM (active) | GI50 (TK-10): 1.9 µM (inactive) | GI50 (DU-145): 1.15 µM (inactive) | GI50 (SF-295): 1.75 µM (inactive) | GI50 (BT-549): 1.81 µM (inactive) | GI50 (A498): 2.24 µM (inactive) | GI50 (HCT-116): 1.38 µM (inactive) | GI50 (OVCAR-3): 0.893 µM (active) | GI50 (SK-MEL-5): 1.59 µM (inactive) | GI50 (SF-268): 1.58 µM (inactive) | GI50 (HL-60): 0.667 µM (active) | GI50 (MOLT-4): 0.64 µM (active) | GI50 (LOX IMVI): 0.736 µM (active) | GI50 (SF-539): 1.71 µM (inactive) | GI50 (HOP-62): 0.764 µM (active) | GI50 (SN12C): 0.891 µM (active)

CCCCOC(=O)Nc1ccc(S(=O)(=O)Nc2c(Cl)cccc2Cl)cc1
GI50 (OVCAR-8): 22.3 µM (inactive) | GI50 (MDA-MB-231): 25.1 µM (inactive) | GI50 (SK-MEL-28): 24.4 µM (inactive) | GI50 (NCI/ADR-RES): 24.3 µM (inactive) | GI50 (K562): 19.6 µM (inactive) | GI50 (UO-31): 25.6 µM (inactive) | GI50 (COLO 205): 16.1 µM (inactive) | GI50 (HCC 2998): 23.9 µM (inactive) | GI50 (KM12): 36.1 µM (inactive) | GI50 (MDA-N): 27.2 µM (inactive) | GI50 (SNB-19): 39.7 µM (inactive) | GI50 (MCF7): 30.8 µM (inactive) | GI50 (OVCAR-4): 12.1 µM (inactive) | GI50 (NCI-H460): 31.1 µM (inactive) | GI50 (SK-OV-3): 25.2 µM (inactive) | GI50 (CCRF-CEM): 33.6 µM (inactive) | GI50 (UACC-257): 35.6 µM (inactive) | GI50 (A549): 37.4 µM (inactive) | GI50 (SK-MEL-2): 26.9 µM (inactive) | GI50 (NCI-H23): 40.9 µM (inactive) | GI50 (Hs-578T): 43 µM (inactive) | GI50 (CAKI-1): 25.6 µM (inactive) | GI50 (SW-620): 24.4 µM (inactive) | GI50 (HT-29): 14.5 µM (inactive) | GI50 (HCT-15): 26.7 µM | GI50 (U-251): 36.1 µM (inactive) | GI50 (T47D): 25700 nM (inactive) | GI50 (UACC-62): 21.2 µM (inactive) | GI50 (MDA-MB-435): 26.3 µM (inactive) | GI50 (NCI-H522): 42.1 µM (inactive) | GI50 (M14): 43 µM (inactive) | GI50 (OVCAR-5): 42 µM (inactive) | GI50 (HOP-92): 24.2 µM (inactive) | GI50 (Malme-3M): 26.9 µM (inactive) | GI50 (PC-3): 43.3 µM (inactive) | GI50 (EKVX): 26.6 µM (inactive) | GI50 (RPMI-8226): 17.1 µM (inactive) | GI50 (IGROV-1): 30.4 µM (inactive) | GI50 (ACHN): 30.2 µM (inactive) | GI50 (786-0): 31.3 µM (inactive) | GI50 (SR): 21.4 µM (inactive) | GI50 (TK-10): 36.6 µM (inactive) | GI50 (DU-145): 38.9 µM (inactive) | GI50 (RXF 393): 36.9 µM (inactive) | GI50 (SF-295): 32.3 µM (inactive) | GI50 (BT-549): 17.7 µM (inactive) | GI50 (A498): 11.1 µM (inactive) | GI50 (HCT-116): 26.5 µM (inactive) | GI50 (OVCAR-3): 26.3 µM (inactive) | GI50 (SK-MEL-5): 14.1 µM (inactive) | GI50 (SF-268): 36.6 µM (inactive) | GI50 (HL-60): 22.3 µM (inactive) | GI50 (MOLT-4): 24.3 µM (inactive) | GI50 (LOX IMVI): 30.1 µM (inactive) | GI50 (SF-539): 29.4 µM (inactive) | GI50 (HOP-62): 49 µM (inactive) | GI50 (SN12C): 34.1 µM (inactive)
